Data on 7 compounds can be found in ChEMBL document CHEMBL1201862, “PubChem BioAssay data set” (2004).

Test [1] in a line: HGIII-sPLA2 enzyme inhibition potency – biochemical, QFRET, IC50, dose response (AID 743457).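 Further: green fluorescence rise as the enzyme cleaves BODIPY PC-A2 in liposomes.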
Test [2] can be described thus: HIV-1 AD8 envelope cell-cell fusion blockers – cherry-pick, dose response (AID 652062).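 Further: luciferase signal from cell-cell fusion driven by HIV-1 clade B AD8 Env; potency is for inhibitors of fusion seen as a drop in luminescence.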 The format is functional, cell-based.
Test [3] is described as follows: off-target signal loss in HeLa-CEM21 co-culture – HeLa F-luc CTL cells, cherry-picked, counter-screen for HIV-1 Env fusion inhibitor project, dose response (AID 652040).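 Further: potency for signal decrease marking cytotoxic or nonspecific inhibition.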 In kind it is functional, cell-based.
The nature of test [4]: blockers of HIV-1 envelope-mediated cell-cell fusion – cherry-pick, dose response (AID 652057). The format is functional, cell-based.
The nature of test [5]: blockers of HIV-1 ZM109 envelope-driven cell-cell fusion – HeLa effector, CEM target cells, luciferase, cherry-pick, dose response (AID 652058).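 Further: luciferase signal from HIV-1 Env mediated cell-cell fusion of effector and target cells.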 In kind it is functional, cell-based.
Test [6] in a line: viability loss in CEM21 cells – cell-based, CellTiter-Glo luminescence, cherry-picked, cytotoxicity control for viral fusion inhibitor project, dose response (AID 652042).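 Further: potency for signal decrease meaning cytotoxicity.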 The format is functional.
Test [7] in a line: inhibition of ADAM10 peptide cleavage – biochemical, FRET peptide substrate, recombinant human ADAM10, selectivity assay for ADAM17 exosite inhibitor project, dose response (AID 743259).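 Further: ADAM10 enzyme cleaving a FRET peptide substrate.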
Test [8] concerns the target Disintegrin and metalloproteinase domain-containing protein 17 (Homo sapiens, UniProt P78536). Description: exosite inhibitors of ADAM17, dose response, biochemical (AID 743260).
The nature of test [9]: A549 cell cytotoxicity, dose response, cytotoxicity control, plate reader, cherry-pick, antagonist series (AID 743412). The format is functional, cell-based.
Test [10] is described as follows: blockade of melanocortin 4 receptor signaling – cell-based, plate reader, cherry pick, counter-screen for LGR2 antagonist project, dose response (AID 743444).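 Further: transfected HEK 293 cells stimulated with alpha-MSH peptide; potency of inhibitors of the alpha-MSH evoked signal.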 The format is functional. On the technique in general: A counterscreen serves to expose hits that act by an unwanted route or on another target.
Test [11] is described as follows: blockers of bursicon-stimulated LGR2 cAMP reporter – cell-based, HEK293, CRE-luciferase reporter, cherry pick, set 2, dose response (AID 743343).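 Further: transfected cells were stimulated with diluted bursicon conditioned medium after compound addition.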 In kind it is functional. (In a reporter assay the amount or activity of a reporter protein is the signal.)
For test [12], the target named is Histone-lysine N-methyltransferase NSD2 (Homo sapiens, UniProt O96028). In kind it is biochemical.
Sequence of Histone-lysine N-methyltransferase NSD2 (O96028 whole entry): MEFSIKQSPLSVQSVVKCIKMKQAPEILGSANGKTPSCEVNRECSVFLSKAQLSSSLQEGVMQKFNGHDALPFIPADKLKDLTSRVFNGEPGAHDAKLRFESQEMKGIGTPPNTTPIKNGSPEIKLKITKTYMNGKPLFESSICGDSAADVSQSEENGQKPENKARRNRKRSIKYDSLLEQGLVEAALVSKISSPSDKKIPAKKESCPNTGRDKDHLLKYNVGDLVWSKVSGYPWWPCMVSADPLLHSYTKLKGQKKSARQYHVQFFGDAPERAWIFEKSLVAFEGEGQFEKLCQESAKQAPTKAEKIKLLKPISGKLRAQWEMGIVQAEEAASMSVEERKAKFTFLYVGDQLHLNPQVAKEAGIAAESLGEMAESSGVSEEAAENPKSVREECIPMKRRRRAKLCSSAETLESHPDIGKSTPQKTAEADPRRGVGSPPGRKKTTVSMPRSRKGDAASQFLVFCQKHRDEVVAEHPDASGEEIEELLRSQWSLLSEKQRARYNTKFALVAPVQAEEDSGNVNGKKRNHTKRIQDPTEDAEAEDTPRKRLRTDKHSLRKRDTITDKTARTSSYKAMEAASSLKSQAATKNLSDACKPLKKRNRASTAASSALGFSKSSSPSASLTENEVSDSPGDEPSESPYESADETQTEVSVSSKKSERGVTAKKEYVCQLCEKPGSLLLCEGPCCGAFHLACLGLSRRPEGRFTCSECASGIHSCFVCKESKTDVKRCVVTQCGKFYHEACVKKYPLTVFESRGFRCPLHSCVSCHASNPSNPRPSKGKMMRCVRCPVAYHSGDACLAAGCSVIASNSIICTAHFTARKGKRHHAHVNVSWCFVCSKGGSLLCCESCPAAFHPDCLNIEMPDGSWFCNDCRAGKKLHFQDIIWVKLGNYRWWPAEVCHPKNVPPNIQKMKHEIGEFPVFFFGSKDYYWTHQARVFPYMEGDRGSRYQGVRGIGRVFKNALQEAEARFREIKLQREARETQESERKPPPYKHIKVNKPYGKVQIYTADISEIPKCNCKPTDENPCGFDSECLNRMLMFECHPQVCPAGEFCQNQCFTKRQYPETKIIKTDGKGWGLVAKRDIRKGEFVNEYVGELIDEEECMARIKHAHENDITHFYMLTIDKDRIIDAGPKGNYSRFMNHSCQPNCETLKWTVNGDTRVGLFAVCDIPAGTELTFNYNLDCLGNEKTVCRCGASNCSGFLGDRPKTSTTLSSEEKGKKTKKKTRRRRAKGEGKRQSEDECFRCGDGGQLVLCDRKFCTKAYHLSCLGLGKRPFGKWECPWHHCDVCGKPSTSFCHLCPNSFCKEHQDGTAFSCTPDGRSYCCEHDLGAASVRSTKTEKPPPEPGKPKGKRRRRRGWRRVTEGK
The target in test [13] is Induced myeloid leukemia cell differentiation protein Mcl-1 (Homo sapiens, UniProt Q07820). In kind it is functional.
Sequence of Induced myeloid leukemia cell differentiation protein Mcl-1 (Q07820 whole entry): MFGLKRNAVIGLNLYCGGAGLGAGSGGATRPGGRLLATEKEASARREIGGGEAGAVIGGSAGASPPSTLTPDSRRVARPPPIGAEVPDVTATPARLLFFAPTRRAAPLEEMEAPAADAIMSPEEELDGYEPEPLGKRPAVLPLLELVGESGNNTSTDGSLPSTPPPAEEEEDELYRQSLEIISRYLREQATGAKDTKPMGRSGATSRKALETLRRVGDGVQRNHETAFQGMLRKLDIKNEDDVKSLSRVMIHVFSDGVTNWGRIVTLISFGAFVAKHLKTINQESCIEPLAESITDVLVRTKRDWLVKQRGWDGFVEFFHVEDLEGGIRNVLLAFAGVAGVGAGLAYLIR
Another test deals with T1, Protein RecA (Mycobacterium tuberculosis, UniProt P9WHJ3).
T1 sequence (P9WHJ3 whole entry): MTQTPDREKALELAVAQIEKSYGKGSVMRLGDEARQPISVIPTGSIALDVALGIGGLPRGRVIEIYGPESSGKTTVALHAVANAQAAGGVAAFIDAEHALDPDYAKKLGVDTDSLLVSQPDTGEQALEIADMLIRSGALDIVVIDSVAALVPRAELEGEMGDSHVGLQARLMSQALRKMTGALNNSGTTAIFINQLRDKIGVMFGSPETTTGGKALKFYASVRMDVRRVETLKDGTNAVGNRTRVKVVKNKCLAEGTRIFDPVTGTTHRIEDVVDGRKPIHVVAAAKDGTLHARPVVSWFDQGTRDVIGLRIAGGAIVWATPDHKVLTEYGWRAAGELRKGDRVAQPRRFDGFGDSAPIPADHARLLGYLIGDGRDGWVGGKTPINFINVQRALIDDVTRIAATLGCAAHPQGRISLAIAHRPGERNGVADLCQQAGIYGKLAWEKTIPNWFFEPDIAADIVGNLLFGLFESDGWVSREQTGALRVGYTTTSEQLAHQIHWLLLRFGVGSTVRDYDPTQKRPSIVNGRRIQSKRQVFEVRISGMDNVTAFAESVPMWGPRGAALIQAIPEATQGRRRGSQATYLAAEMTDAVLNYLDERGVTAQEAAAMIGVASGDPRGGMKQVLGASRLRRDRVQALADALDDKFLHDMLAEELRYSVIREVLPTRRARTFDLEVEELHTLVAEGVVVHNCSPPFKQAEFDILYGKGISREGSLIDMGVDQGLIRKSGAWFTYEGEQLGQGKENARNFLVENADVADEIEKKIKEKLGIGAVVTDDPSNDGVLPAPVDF
Description: Fluorescence Cell-Free Homogeneous Dose Retest to Identify Inhibitors of RecA-Intein Splicing Activity. [Related pubchem assays (depositor defined):AID2097, AID2223, AID489010, AID492950]. The format is functional.

For test [14], the target named is Fructose-bisphosphate aldolase (Mycobacterium tuberculosis, UniProt P9WQA3). Description: Fluorescence-based biochemical high throughput dose response assay for inhibitors of the fructose-bisphosphate aldolase (FBA) of M. tuberculosis. In kind it is functional.
Sequence of Fructose-bisphosphate aldolase (P9WQA3 whole entry): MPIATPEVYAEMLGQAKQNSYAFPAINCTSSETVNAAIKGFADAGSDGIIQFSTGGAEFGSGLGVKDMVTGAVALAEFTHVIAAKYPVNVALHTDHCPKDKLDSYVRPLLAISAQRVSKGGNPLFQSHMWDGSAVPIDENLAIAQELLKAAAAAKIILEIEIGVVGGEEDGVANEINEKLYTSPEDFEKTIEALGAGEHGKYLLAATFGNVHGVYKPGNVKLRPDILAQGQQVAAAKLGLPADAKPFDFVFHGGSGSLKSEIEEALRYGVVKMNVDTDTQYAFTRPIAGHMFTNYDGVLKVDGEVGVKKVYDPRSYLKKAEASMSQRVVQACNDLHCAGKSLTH
For the next test, the target named is Beta-galactosidase (Escherichia coli, UniProt Q8VNN2). Description: Dose response counterscreen for EBI2 assay utilizing the enzyme, b-galactosidase. The format is functional.
Sequence of Beta-galactosidase (Q8VNN2 whole entry): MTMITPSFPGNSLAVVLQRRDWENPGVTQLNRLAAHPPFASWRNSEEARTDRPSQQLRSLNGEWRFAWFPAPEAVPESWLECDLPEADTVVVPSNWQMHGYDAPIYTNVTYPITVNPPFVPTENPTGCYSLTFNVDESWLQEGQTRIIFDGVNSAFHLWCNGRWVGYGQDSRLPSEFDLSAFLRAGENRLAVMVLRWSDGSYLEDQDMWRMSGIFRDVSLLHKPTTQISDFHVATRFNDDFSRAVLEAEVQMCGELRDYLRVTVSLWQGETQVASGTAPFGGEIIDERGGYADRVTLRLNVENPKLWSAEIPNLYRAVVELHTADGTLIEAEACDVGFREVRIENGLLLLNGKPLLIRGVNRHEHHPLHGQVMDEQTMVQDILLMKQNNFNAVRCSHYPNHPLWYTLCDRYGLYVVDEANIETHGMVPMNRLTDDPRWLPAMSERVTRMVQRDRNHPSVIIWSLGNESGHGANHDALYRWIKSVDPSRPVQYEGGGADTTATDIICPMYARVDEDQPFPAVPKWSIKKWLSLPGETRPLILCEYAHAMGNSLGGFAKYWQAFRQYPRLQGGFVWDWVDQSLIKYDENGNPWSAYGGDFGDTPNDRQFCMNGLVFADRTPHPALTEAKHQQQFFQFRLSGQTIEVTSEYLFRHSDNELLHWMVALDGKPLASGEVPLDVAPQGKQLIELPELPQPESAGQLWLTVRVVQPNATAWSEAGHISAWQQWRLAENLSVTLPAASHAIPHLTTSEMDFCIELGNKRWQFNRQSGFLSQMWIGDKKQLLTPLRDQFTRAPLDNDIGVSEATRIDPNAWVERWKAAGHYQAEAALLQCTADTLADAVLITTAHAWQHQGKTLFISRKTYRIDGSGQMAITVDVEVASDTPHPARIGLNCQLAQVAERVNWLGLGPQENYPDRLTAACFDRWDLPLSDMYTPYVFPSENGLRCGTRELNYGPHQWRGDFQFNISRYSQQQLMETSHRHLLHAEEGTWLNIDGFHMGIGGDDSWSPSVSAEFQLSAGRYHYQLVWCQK
The target in test [15] is T2, Corticotropin-releasing factor receptor 2/Corticotropin-releasing factor-binding protein (Homo sapiens, UniProt P24387+Q13324).
T2 sequence (Q13324 whole entry): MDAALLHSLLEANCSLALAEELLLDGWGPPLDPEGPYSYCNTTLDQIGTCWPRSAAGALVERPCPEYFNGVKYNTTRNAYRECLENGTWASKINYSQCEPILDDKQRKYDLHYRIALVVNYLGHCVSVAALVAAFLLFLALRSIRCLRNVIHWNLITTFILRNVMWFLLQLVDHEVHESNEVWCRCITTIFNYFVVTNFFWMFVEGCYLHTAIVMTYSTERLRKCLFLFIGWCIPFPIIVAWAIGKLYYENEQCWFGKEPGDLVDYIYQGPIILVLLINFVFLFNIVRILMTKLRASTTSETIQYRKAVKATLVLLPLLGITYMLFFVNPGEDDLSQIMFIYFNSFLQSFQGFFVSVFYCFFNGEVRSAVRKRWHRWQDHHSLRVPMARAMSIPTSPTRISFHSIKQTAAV
T2 sequence (P24387 whole entry): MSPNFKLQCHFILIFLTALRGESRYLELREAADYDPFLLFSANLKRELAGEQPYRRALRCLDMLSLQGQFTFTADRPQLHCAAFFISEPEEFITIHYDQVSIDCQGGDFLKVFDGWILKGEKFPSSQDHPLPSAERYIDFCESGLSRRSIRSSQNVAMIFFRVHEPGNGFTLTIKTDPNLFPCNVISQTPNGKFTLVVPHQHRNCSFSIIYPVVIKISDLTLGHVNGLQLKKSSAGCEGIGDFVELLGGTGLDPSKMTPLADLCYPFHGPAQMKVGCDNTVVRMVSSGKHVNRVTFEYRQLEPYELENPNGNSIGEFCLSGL
Description: activators of CRF receptor 2 with binding protein – uHTS hits, confirmation (AID 602473). The format is functional. The following applies: read-out: EC50_Mean.

Test [16] has as its target T3, Heat shock factor protein 1 (Mus musculus, UniProt P38532).
T3 sequence (P38532 whole entry): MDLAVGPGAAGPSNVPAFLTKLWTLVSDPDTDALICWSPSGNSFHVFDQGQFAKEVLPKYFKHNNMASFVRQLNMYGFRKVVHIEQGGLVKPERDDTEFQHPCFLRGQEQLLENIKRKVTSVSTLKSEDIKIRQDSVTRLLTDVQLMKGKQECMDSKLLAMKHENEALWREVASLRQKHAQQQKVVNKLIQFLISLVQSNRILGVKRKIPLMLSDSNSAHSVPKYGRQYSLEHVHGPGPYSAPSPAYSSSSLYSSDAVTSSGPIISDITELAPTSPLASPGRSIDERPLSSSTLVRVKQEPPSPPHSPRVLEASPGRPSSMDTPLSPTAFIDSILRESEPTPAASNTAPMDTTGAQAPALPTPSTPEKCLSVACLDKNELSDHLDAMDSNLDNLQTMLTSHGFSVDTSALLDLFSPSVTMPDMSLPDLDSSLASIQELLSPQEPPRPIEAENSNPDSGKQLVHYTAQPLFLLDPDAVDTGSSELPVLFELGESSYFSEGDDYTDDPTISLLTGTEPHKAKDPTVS
Description: enhancement of HSF1-driven luciferase signal – cell-based, NIH3T3, luminescence, dose retest, confirmation (AID 435004).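 Further: stress induced by proteasome inhibitor MG132 added 30 min after compound; luciferase reporter driven by HSF1 response element in NIH3T3 cells; actives raise luminescence as potentiators of the MG132 stress response.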 In kind it is functional.

Structures are written as SMILES. Calls of active or inactive are those of the source. A value given as a limit tells only on which side of the number the result lay.

Sequence of Disintegrin and metalloproteinase domain-containing protein 17 (P78536 whole entry, the tested form may be a part): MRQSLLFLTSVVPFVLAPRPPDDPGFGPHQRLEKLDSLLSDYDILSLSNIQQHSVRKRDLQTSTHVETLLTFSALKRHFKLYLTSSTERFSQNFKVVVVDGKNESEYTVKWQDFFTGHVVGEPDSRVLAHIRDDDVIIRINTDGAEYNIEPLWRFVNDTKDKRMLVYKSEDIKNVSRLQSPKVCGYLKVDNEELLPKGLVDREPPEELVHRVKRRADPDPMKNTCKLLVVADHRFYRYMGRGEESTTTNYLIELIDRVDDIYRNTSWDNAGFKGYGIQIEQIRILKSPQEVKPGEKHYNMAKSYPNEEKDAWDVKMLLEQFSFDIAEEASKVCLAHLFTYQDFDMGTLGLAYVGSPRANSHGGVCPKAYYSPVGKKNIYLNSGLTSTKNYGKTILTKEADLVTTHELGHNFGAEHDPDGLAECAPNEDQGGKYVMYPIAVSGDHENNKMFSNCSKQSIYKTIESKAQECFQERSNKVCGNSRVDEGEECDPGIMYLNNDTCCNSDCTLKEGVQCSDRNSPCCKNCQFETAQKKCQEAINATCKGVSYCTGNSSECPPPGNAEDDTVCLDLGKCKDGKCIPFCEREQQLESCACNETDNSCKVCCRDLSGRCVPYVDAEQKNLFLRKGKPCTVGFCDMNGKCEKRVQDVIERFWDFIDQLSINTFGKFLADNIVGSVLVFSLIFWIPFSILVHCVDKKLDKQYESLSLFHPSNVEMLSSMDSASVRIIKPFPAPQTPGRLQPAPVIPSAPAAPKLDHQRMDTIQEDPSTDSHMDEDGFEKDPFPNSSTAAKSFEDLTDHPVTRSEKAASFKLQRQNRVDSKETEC

A word on the IC50: it is the concentration that inhibits the measured activity by half. As for `O=C(NNc1nc2cc3c(cc2s1)OCO3)c1ccc(F)cc1`, the IC50 in [1] is > 122 µM (inactive).
A word on the AC50: it is the midpoint of the concentration-response curve, whichever way the signal moves. For `Cc1ccc2nc(NC(=O)C3CCN(S(=O)(=O)c4cccs4)CC3)sc2c1`, the half-maximal activity concentration (AC50) was 3.05 µM (active) in test [2]; > 70 µM (inactive) in [3]; 46.5 µM (active) in test [4]; 13.9 µM (active) in [5]; 69.6 µM (active) in test [6].
Take `O=C(NCC(c1ccc(F)cc1)N1CCOCC1)c1ccc(Br)o1` (stereo not drawn): the IC50 in test [7] and in test [8] was > 69.5 µM (inactive) each time.
As for `O=C(NCCc1ccc(Cl)cc1)c1ccc2c(c1)OCCO2`, the AC50 was > 52 µM (inactive) in test [9], 21.2 µM (active) in test [10] and 20.1 µM (active) in test [11].
On to `CCOC(=O)C1CCN(c2nc(N)c3c(N)nc(SCC(=O)O)cc3c2C#N)CC1`, for which the concentration at half-maximal activity (AC50) in [12] was 6.04 µM (active). For the same compound, the 50% inhibitory concentration (IC50) in test [13] was 4.87 µM (active). Further, on Protein RecA, the EC50 is > 380 µM (inactive).
With `N#Cc1c(-c2ccco2)cc(C2CC2)nc1N`, in test [14], the IC50 is 1.43 µM (active).
In the case of `CC1(C)CC(=O)C(=CNc2cc(C(=O)c3ccccc3)ccc2/N=C/C2=C(O)CC(C)(C)CC2=O)C(=O)C1`, the 50% inhibitory concentration (IC50) at Beta-galactosidase was 7.97 µM (active). Besides, the EC50 in test [15] was > 53 µM (inactive); in test [16], 56.1 µM (active).
